Measured values taken from ChEMBL document CHEMBL1201862, “PubChem BioAssay data set” (2004).
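Briefly, cells in 96-well plates were exposed to five compound concentrations for 48 h, and endpoints were estimated by linear interpolation. Here, GI50 denotes the concentration required for 50% inhibition of growth.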 Active and inactive are the calls of the source. Cut-off read from the data, not from the text of the source: active = GI50 up to about 1.1 µM and inactive = higher.

Legend:
Experiment in all cases: inhibition of tumour cell growth, NCI panel, 48 h
[1] = tested on: 786-0
[2] = tested on: A549
[3] = tested on: HL-60
[4] = tested on: K562
[5] = tested on: LOX IMVI
[6] = tested on: MDA-MB-231
[7] = tested on: MDA-MB-435
[8] = tested on: MOLT-4
[9] = tested on: NCI/ADR-RES
[10] = tested on: OVCAR-4
[11] = tested on: OVCAR-5
[12] = tested on: SK-OV-3
[13] = tested on: SNB-19
[14] = tested on: SR
[15] = tested on: UACC-257
[16] = tested on: UACC-62
[17] = tested on: CCRF-CEM
[18] = tested on: NCI-H522
[19] = tested on: SF-539

SMILES	GI50 [1]	GI50 [2]	GI50 [3]	GI50 [4]	GI50 [5]	GI50 [6]	GI50 [7]	GI50 [8]	GI50 [9]	GI50 [10]	GI50 [11]	GI50 [12]	GI50 [13]	GI50 [14]	GI50 [15]	GI50 [16]	GI50 [17]	GI50 [18]	GI50 [19]
O=C(C1=CCC2(CC1)OCCO2)N(Cc1ccccc1)c1ccccc1I	18.8 µM (inactive)	28 µM (inactive)	18 µM (inactive)	43.2 µM (inactive)	21.2 µM (inactive)	20 µM (inactive)	19.7 µM (inactive)	63.8 µM (inactive)	15 µM (inactive)	14.9 µM (inactive)	18.1 µM (inactive)	32.1 µM (inactive)	18.9 µM (inactive)	12.8 µM (inactive)	19.2 µM (inactive)	13.5 µM (inactive)			
C[C@]12CC[C@@H]3c4ccc(O)cc4CC[C@H]3[C@@H]1C/C(=C\c1ccc([N+](=O)[O-])cc1)C2=O	> 100 µM (inactive)	57.9 µM (inactive)		99.8 µM (inactive)	36.6 µM (inactive)	67.6 µM (inactive)	37.8 µM (inactive)	> 100 µM (inactive)	59.2 µM (inactive)	> 100 µM (inactive)	> 100 µM (inactive)	> 100 µM (inactive)	> 100 µM (inactive)	65.3 µM (inactive)	34.8 µM (inactive)	37.8 µM (inactive)	53.7 µM (inactive)	24.1 µM (inactive)	29.9 µM (inactive)
COC(=O)N1C2C(C[C@@]1(C)C(=O)OC)c1ccccc1N2S(=O)(=O)c1ccccc1 (stereo not given in full)	> 100 µM (inactive)	> 100 µM (inactive)	> 100 µM (inactive)	> 100 µM (inactive)	> 100 µM (inactive)	> 100 µM (inactive)	> 100 µM (inactive)	> 100 µM (inactive)	> 100 µM (inactive)	> 100 µM (inactive)	> 100 µM (inactive)	> 100 µM (inactive)	> 100 µM (inactive)	> 100 µM (inactive)	> 100 µM (inactive)	> 100 µM (inactive)	> 100 µM (inactive)	> 100 µM (inactive)	
COC1CCN(N(C)C)O1 (stereo not given)	> 100 µM (inactive)	> 100 µM (inactive)	> 100 µM (inactive)	> 100 µM (inactive)	> 100 µM (inactive)	> 100 µM (inactive)	> 100 µM (inactive)	> 100 µM (inactive)	> 100 µM (inactive)	> 100 µM (inactive)	> 100 µM (inactive)		> 100 µM (inactive)	> 100 µM (inactive)	> 100 µM (inactive)	> 100 µM (inactive)	> 100 µM (inactive)	> 100 µM (inactive)	
Cc1ccc(C2=C(C#N)C(=O)N3CCN=C3S2)cc1	> 100 µM (inactive)	> 100 µM (inactive)		58.2 µM (inactive)	> 100 µM (inactive)	> 100 µM (inactive)	> 100 µM (inactive)	> 100 µM (inactive)	> 100 µM (inactive)	> 100 µM (inactive)	> 100 µM (inactive)	> 100 µM (inactive)	70.3 µM (inactive)	> 100 µM (inactive)	> 100 µM (inactive)	> 100 µM (inactive)	> 100 µM (inactive)	> 100 µM (inactive)	> 100 µM (inactive)
NCCNCCCNC(=O)c1cc(-c2ccccc2)nc2ccccc12	22.3 µM (inactive)	41.6 µM (inactive)	30.6 µM (inactive)	23.1 µM (inactive)	28.3 µM (inactive)	31.3 µM (inactive)	20.8 µM (inactive)	22.1 µM (inactive)	> 100 µM (inactive)		46.3 µM (inactive)	65 µM (inactive)	50 µM (inactive)	28.3 µM (inactive)	24.1 µM (inactive)	19.9 µM (inactive)	21 µM (inactive)	17.6 µM (inactive)	19.6 µM (inactive)
CN(C)c1ccc(/C=C2\N=C(c3ccccc3)N(c3ccc4c(c3)Sc3cc(N5C(=O)/C(=C/c6ccc(N(C)C)cc6)N=C5c5ccccc5)ccc3N4)C2=O)cc1	22.9 µM (inactive)	22.1 µM (inactive)	27.5 µM (inactive)	29.6 µM (inactive)	19.5 µM (inactive)	18.2 µM (inactive)	21.5 µM (inactive)	61.5 µM (inactive)	28.4 µM (inactive)	22.6 µM (inactive)	18.8 µM (inactive)	13.6 µM (inactive)	17.5 µM (inactive)	90.6 µM (inactive)	19.7 µM (inactive)	16.6 µM (inactive)	3.73 µM (inactive)		17.5 µM (inactive)
COC(=O)C1Cc2c([nH]c3ccccc23)-c2[nH]c3ccccc3c2CC(NC(C)=O)C(=O)N2CCCC2C(=O)N1 (stereo not given)	> 100 µM (inactive)	> 100 µM (inactive)		> 100 µM (inactive)	> 100 µM (inactive)	> 100 µM (inactive)	> 100 µM (inactive)	66.7 µM (inactive)	> 100 µM (inactive)	> 100 µM (inactive)	> 100 µM (inactive)	> 100 µM (inactive)	> 100 µM (inactive)	> 100 µM (inactive)	> 100 µM (inactive)	> 100 µM (inactive)	93.5 µM (inactive)	36.1 µM (inactive)	> 100 µM (inactive)
O=C(O)c1cc(O)c2c(c1)Cc1cccc(O)c1C2=O	30.5 µM (inactive)	31.4 µM (inactive)	21.1 µM (inactive)	40 µM (inactive)		21.5 µM (inactive)	33.6 µM (inactive)	22.7 µM (inactive)	24.9 µM (inactive)	38 µM (inactive)	29.9 µM (inactive)	30.5 µM (inactive)	28.6 µM (inactive)	26.1 µM (inactive)	26.7 µM (inactive)	19.1 µM (inactive)	29.4 µM (inactive)		
CC#CCCN(CC#N)Cc1ccccc1	> 100 µM (inactive)	> 100 µM (inactive)	> 100 µM (inactive)	> 100 µM (inactive)	> 100 µM (inactive)	> 100 µM (inactive)	> 100 µM (inactive)	> 100 µM (inactive)	> 100 µM (inactive)	> 100 µM (inactive)	> 100 µM (inactive)	> 100 µM (inactive)	> 100 µM (inactive)	> 100 µM (inactive)	> 100 µM (inactive)	18.1 µM (inactive)	> 100 µM (inactive)	> 100 µM (inactive)	
C1COC2SC3=C(SC(=C4SC5=C(SCCS5)S4)S3)SC2O1 (stereo not given)	77.8 µM (inactive)	> 100 µM (inactive)	33.9 µM (inactive)	73.1 µM (inactive)		> 100 µM (inactive)	4.07 µM (inactive)	> 100 µM (inactive)	> 100 µM (inactive)	31.3 µM (inactive)	> 100 µM (inactive)	72.3 µM (inactive)	> 100 µM (inactive)	3.68 µM (inactive)	> 100 µM (inactive)	22 µM (inactive)	> 100 µM (inactive)	31.8 µM (inactive)	44 µM (inactive)
O=C(c1ccccc1)c1ccc(COc2ccc(C(c3c(O)c4ccccc4oc3=O)c3c(O)c4ccccc4oc3=O)cc2)cc1	23.6 µM (inactive)	26.2 µM (inactive)		19.9 µM (inactive)	23.9 µM (inactive)	34.3 µM (inactive)	20.2 µM (inactive)	18.7 µM (inactive)	19.5 µM (inactive)	30.2 µM (inactive)	18.9 µM (inactive)	19.2 µM (inactive)	23.4 µM (inactive)	35.9 µM (inactive)	19.4 µM (inactive)	14 µM (inactive)	3.84 µM (inactive)	18.2 µM (inactive)	23.9 µM (inactive)
O=C(C/N=C(\CN(c1ccccc1)c1ccccc1)Oc1c(Cl)cc(Cl)cc1Cl)n1cnc2ccccc21	> 100 µM (inactive)	> 100 µM (inactive)	32.7 µM (inactive)	80.7 µM (inactive)		74 µM (inactive)	76.6 µM (inactive)	18.1 µM (inactive)	38.3 µM (inactive)	> 100 µM (inactive)	28 µM (inactive)	> 100 µM (inactive)	> 100 µM (inactive)	33.9 µM (inactive)	> 100 µM (inactive)	32.3 µM (inactive)	33.8 µM (inactive)	84.1 µM (inactive)	> 100 µM (inactive)
C=CC(Br)(CBr)CCC(Br)C(C)(C)Cl (stereo not given)	2.35 µM (inactive)	11.5 µM (inactive)	0.807 µM (active)	1.75 µM (inactive)		2.49 µM (inactive)	2.3 µM (inactive)	0.555 µM (active)	3.92 µM (inactive)	4.08 µM (inactive)	7.11 µM (inactive)	16.3 µM (inactive)	1.71 µM (inactive)	1.66 µM (inactive)	3.87 µM (inactive)	4.78 µM (inactive)	2.22 µM (inactive)	1.38 µM (inactive)	1.99 µM (inactive)
CC(C)(C)OC(=O)N(CCCCNC(=O)C(F)(F)F)CCCNC(=O)C(F)(F)F	> 100 µM (inactive)	> 100 µM (inactive)	87.5 µM (inactive)	> 100 µM (inactive)		> 100 µM (inactive)	> 100 µM (inactive)	> 100 µM (inactive)	> 100 µM (inactive)	> 100 µM (inactive)	> 100 µM (inactive)	> 100 µM (inactive)	> 100 µM (inactive)	> 100 µM (inactive)	> 100 µM (inactive)	> 100 µM (inactive)	> 100 µM (inactive)	> 100 µM (inactive)	> 100 µM (inactive)
